Reference: ChEMBL document CHEMBL4152300, “Discovery of the selective and efficacious inhibitors of FLT3 mutations” (Eur J Med Chem, 2018)
Each block holds one molecule with its values, some of them ahead of it.

Columns and labels:
[1] = target: T1, CDK2 (cyclin-dependent kinase 2) (Homo sapiens, UniProt P24941); experiment: Inhibition of CDK2 (unknown origin) assessed as residual activity at 0.123 uM by Hotspot assay relative to control; settings: CDK2 enzyme (unknown origin), read-out: Activity
[2] = target: T2, Cyclin-dependent kinase 6 (Homo sapiens, UniProt Q00534); experiment: Inhibition of CDK6 (unknown origin) assessed as residual activity at 0.123 uM by Hotspot assay relative to control
MV4-11 = experiment: Growth inhibition of human MV4-11 cells harboring FLT3-ITD after 72 hrs by Cell-Titer Glo assay; format: functional, cell-based; settings: MV4-11, 72 h
[3] = target: T3, Receptor-type tyrosine-protein kinase FLT3 (Homo sapiens, UniProt P36888)
T3 sequence (P36888 whole entry): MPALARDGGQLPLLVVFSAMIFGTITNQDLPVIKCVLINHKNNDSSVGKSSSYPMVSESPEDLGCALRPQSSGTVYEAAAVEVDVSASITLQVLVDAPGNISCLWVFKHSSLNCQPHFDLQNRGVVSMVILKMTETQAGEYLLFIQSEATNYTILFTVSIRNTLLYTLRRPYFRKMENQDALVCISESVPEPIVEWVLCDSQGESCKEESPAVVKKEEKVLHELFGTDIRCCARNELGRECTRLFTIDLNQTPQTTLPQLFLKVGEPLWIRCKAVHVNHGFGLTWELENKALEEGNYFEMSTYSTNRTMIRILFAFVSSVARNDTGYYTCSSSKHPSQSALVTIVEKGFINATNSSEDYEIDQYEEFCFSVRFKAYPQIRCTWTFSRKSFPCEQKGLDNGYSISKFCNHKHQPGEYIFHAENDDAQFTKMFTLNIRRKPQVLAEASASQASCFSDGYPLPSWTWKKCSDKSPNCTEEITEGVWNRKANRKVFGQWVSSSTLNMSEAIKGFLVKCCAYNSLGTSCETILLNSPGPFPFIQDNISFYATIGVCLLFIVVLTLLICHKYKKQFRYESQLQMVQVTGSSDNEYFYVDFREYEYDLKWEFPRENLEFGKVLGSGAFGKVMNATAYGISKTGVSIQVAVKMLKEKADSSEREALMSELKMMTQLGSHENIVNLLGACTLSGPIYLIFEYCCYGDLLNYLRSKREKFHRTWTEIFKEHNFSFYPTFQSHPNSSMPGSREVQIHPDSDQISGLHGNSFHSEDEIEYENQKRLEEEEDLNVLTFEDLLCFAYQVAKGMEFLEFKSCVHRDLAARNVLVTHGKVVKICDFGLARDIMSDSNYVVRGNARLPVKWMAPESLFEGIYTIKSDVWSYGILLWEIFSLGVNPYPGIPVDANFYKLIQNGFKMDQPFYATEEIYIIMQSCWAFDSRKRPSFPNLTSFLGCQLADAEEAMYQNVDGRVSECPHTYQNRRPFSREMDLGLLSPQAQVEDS
Description: Inhibition of human FLT3 by Hotspot assay

[4] = target: Cyclin-dependent kinase 2 (Homo sapiens, UniProt P24941); experiment: Inhibition of CDK2 (unknown origin) by Hotspot assay
[5] = target: T2, Cyclin-dependent kinase 6; experiment: Inhibition of CDK6 (unknown origin) by Hotspot assay
[6] = target: T1, CDK2 (cyclin-dependent kinase 2); experiment: Inhibition of CDK2 (unknown origin) at 0.123 uM by Hotspot assay relative to control; settings: CDK2 enzyme (unknown origin)
[7] = target: T2, Cyclin-dependent kinase 6; experiment: Inhibition of CDK6 (unknown origin) at 0.123 uM by Hotspot assay relative to control
[8] = target: T4, Receptor-type tyrosine-protein kinase FLT3 (Homo sapiens, UniProt P36888); experiment: Inhibition of human FLT3 assessed as residual activity at 0.123 uM by Hotspot assay relative to control
[9] = Half life in human liver microsomes preincubated for 5 mins followed by NADPH addition by LC-MS/MS analysis; format: ADME, microsome
[10] = Intrinsic clearance in human liver microsomes preincubated for 5 mins followed by NADPH addition by LC-MS/MS analysis; format: ADME, microsome; settings: read-out: CLH
[11] = Drug uptake in human liver microsomes up to 60 mins by LC-MS/MS analysis; format: ADME, microsome; settings: 1 h
[12] = target: Vascular endothelial growth factor receptor 3 (Homo sapiens, UniProt P35916); experiment: Inhibition of human FLT4 by Hotspot assay
CDK2/Cyclin A2 = CDK2/Cyclin A2 (Homo sapiens, UniProt P24941); experiment: Inhibition of human CDK2/Cyclin-A at 0.123 uM by Hotspot assay; format: protein-complex assay
[13] = target: Cyclin-dependent kinase 4/cyclin D1 (Homo sapiens, UniProt P11802); experiment: Inhibition of human CDK4/Cyclin-D1 at 0.123 uM by Hotspot assay; format: protein-complex assay
CDK6/cyclin D1 = CDK6/cyclin D1 (Homo sapiens, UniProt Q00534); experiment: Inhibition of human CDK6/Cyclin-D1 at 0.123 uM by Hotspot assay; format: protein-complex assay
[14] = target: Mitogen-activated protein kinase 15 (Homo sapiens, UniProt Q8TD08); experiment: Inhibition of human ERK7 at 0.123 uM by Hotspot assay
[15] = target: T5, Receptor-type tyrosine-protein kinase FLT3 (Homo sapiens, UniProt P36888, D835Y); experiment: Inhibition of human FLT3 D835Y mutant by Hotspot assay
[16] = target: T4, Receptor-type tyrosine-protein kinase FLT3; experiment: Inhibition of human FLT3 F594_R595insREY mutant by Hotspot assay
[17] = target: T4, Receptor-type tyrosine-protein kinase FLT3; experiment: Inhibition of human FLT3 F594_R595insR mutant by Hotspot assay
[18] = target: T6, Receptor-type tyrosine-protein kinase FLT3 (Homo sapiens, UniProt P36888, ITD); experiment: Inhibition of human FLT3 ITD-NPOS mutant by Hotspot assay
[19] = target: T6, Receptor-type tyrosine-protein kinase FLT3; experiment: Inhibition of human FLT3 ITD-W51 mutant by Hotspot assay
[20] = target: T4, Receptor-type tyrosine-protein kinase FLT3; experiment: Inhibition of human FLT3 R595_E596 mutant by Hotspot assay
[21] = target: T4, Receptor-type tyrosine-protein kinase FLT3; experiment: Inhibition of human FLT3 Y591-V592 mutant by Hotspot assay
[22] = target: T5, Receptor-type tyrosine-protein kinase FLT3; experiment: Binding affinity to human FLT3 D835Y mutant (Q580 to Y969 residues) expressed in bacterial expression system by Kinomescan method
[23] = target: Receptor-type tyrosine-protein kinase FLT3 (Homo sapiens, UniProt P36888, D835V/ITD); experiment: Binding affinity to human FLT3 ITD/D835V double mutant expressed in bacterial expression system by Kinomescan method
[24] = target: Receptor-type tyrosine-protein kinase FLT3 (Homo sapiens, UniProt P36888, F691L/ITD); experiment: Binding affinity to human FLT3 ITD/F691L double mutant expressed in bacterial expression system by Kinomescan method
MOLM-13 = experiment: Growth inhibition of human MOLM13 cells harboring FLT3-ITD after 72 hrs by Cell-Titer Glo assay; format: functional, cell-based; settings: MOLM-13, 72 h
HL-60 = experiment: Growth inhibition of human HL60 cells expressing low levels of FLT3 after 72 hrs by Cell-Titer Glo assay; format: functional, cell-based; settings: HL-60, 72 h
K562 = experiment: Growth inhibition of FLT3 null human K562 cells after 72 hrs by Cell-Titer Glo assay; format: functional, cell-based; settings: K562, 72 h
Homo sapiens [25] = organism: Homo sapiens; experiment: Selectivity ratio of IC50 for CDK2 (unknown origin) to IC50 for human FLT3
Homo sapiens [26] = organism: Homo sapiens; experiment: Selectivity ratio of IC50 for CDK6 (unknown origin) to IC50 for human FLT3

T2 sequence (Q00534 whole entry): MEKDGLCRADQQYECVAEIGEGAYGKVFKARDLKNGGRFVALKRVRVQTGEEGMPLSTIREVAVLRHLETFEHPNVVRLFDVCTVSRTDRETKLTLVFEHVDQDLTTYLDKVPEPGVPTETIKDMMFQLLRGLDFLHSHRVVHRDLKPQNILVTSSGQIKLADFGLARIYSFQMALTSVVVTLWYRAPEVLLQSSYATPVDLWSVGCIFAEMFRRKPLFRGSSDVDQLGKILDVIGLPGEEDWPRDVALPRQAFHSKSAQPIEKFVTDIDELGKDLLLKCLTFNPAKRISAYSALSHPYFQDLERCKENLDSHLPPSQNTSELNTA
Sequence of CDK6/cyclin D1 (P24385 whole entry): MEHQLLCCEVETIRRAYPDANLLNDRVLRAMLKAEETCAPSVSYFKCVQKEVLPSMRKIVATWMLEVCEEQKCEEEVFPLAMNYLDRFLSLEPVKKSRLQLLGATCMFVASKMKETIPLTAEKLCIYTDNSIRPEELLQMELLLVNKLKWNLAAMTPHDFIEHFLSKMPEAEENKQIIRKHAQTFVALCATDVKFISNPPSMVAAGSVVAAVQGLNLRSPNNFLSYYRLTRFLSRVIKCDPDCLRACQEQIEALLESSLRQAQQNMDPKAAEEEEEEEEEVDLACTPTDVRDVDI
Sequence of CDK6/cyclin D1 (Q00534 whole entry): as the sequence (Q00534 whole entry) above
Sequence of Cyclin-dependent kinase 4/cyclin D1 (P11802 whole entry): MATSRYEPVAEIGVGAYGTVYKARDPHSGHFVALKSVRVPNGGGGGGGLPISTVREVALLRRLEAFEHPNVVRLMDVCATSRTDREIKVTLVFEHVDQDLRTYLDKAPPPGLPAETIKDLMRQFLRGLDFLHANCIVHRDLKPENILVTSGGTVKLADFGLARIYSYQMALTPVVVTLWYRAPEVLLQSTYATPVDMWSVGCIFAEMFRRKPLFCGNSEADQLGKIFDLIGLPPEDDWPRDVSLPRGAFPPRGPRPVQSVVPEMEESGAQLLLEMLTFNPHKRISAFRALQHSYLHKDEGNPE
Sequence of Cyclin-dependent kinase 4/cyclin D1 (P24385 whole entry, further chain): as the sequence (P24385 whole entry) above
Sequence of Vascular endothelial growth factor receptor 3 (P35916 whole entry): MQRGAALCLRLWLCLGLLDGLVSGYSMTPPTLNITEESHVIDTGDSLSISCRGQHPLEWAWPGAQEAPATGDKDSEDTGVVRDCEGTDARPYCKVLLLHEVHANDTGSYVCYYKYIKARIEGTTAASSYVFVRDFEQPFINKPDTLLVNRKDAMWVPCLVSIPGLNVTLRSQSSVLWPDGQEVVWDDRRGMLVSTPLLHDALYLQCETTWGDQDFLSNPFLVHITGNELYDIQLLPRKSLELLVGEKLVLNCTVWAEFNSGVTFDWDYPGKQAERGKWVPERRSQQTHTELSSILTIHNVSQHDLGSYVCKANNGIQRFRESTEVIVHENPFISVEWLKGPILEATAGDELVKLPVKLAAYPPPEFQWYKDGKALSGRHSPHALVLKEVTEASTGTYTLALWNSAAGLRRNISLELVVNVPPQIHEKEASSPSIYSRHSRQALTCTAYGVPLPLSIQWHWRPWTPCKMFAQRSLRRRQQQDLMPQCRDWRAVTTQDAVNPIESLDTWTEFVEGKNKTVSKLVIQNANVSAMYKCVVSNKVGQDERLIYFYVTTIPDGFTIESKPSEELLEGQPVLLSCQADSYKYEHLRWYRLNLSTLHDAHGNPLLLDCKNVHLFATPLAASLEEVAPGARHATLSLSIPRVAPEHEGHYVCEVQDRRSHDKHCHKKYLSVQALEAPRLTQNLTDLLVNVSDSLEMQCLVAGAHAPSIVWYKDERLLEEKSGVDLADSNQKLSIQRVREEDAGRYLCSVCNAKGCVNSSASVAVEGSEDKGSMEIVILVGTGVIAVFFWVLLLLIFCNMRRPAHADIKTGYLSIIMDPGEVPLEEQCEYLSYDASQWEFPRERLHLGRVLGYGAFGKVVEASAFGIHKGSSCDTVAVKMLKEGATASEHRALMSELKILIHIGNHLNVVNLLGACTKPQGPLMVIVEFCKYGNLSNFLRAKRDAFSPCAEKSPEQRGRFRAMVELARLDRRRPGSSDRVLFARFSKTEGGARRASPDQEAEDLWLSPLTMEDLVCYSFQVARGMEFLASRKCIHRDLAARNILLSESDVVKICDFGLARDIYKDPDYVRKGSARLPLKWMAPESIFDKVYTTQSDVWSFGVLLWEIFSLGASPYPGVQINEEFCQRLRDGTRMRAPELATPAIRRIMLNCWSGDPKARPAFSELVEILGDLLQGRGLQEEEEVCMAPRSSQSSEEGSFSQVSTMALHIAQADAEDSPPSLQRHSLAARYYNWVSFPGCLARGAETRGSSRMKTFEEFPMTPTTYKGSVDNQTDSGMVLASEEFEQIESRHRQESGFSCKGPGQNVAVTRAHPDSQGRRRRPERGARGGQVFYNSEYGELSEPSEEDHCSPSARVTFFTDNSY
Sequence of Mitogen-activated protein kinase 15 (Q8TD08 whole entry): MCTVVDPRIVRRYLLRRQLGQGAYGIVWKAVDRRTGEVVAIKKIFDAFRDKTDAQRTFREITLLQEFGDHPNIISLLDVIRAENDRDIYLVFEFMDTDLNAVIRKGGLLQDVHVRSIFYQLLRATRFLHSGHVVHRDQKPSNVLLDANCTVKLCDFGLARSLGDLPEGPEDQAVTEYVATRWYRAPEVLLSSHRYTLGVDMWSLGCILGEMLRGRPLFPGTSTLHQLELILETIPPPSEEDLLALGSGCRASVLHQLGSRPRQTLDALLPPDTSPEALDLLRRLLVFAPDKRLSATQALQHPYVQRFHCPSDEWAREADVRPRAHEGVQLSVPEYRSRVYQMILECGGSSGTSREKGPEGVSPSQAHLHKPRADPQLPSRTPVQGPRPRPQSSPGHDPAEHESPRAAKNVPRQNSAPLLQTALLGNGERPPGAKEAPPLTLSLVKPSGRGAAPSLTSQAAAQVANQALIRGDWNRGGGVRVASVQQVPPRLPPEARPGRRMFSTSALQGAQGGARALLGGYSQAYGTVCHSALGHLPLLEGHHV

activity at 0.123 µM [1]: 79.4% | Activity [2]: 87.2% | IC50 (MV4-11): 18 nM | IC50 [3]: 0.66 nM
SMILES: Cc1nc2c(c(Nc3c[nH]nc3C(=O)Nc3ccc(N4CCNCC4)cc3)n1)CCCC2

activity at 0.123 µM [1]: 86.6% | Activity [2]: 87% | IC50 (MV4-11): 65 nM | IC50 [3]: 3.42 nM
SMILES: CCc1nc(Nc2c[nH]nc2C(=O)Nc2ccc(N3CCNCC3)cc2)c2ccsc2n1

SMILES: CN1CCN(Cc2ccc(NC(=O)c3n[nH]cc3Nc3nc(C4CC4)nc4sccc34)cc2)CC1
activity at 0.123 µM [1]: 89.8% | Activity [2]: 103% | IC50 (MV4-11): 61 nM | IC50 [3]: 15.7 nM

IC50 [4]: 21.5 nM | IC50 [5]: 19.2 nM | inhibition at 0.123 µM [6]: > 80% | inhibition [7]: > 80% | IC50 (MV4-11): 65 nM | IC50 [3]: 0.73 nM
SMILES: Cc1nc(Nc2c[nH]nc2C(=O)Nc2ccc(CN3CCN(C)CC3)cc2)c2cc(C(C)C)sc2n1

activity at 0.123 µM [1]: 52% | Activity [2]: 79.7% | IC50 (MV4-11): 62 nM | IC50 [3]: 3.63 nM
SMILES: Cc1nc(Nc2c[nH]nc2C(=O)Nc2ccc(CN3CCOCC3)cc2)c2ccsc2n1

Activity [8]: 98.5% | activity at 0.123 µM [1]: 99.9% | Activity [2]: 95.7%
SMILES: Cc1[nH]nc(C(=O)Nc2ccc(CN3CCN(C)CC3)cc2)c1Nc1ncnc2[nH]ccc12

IC50 [4]: 25.4 nM | IC50 [5]: 33.2 nM | inhibition at 0.123 µM [6]: > 80% | inhibition [7]: > 80% | IC50 (MV4-11): 48 nM | IC50 [3]: 0.66 nM
SMILES: Cc1nc(Nc2c[nH]nc2C(=O)Nc2ccc(CN3CCOCC3)cc2)c2cc(C(C)C)sc2n1

Activity [8]: 87.6% | activity at 0.123 µM [1]: 98.5% | Activity [2]: 99.3%
SMILES: CN1CCN(Cc2ccc(NC(=O)c3nn(C)cc3Nc3ncnc4[nH]ccc34)cc2)CC1

activity at 0.123 µM [1]: 78.8% | Activity [2]: 83.1% | IC50 (MV4-11): 33 nM | IC50 [3]: 3.8 nM
SMILES: Cc1nc(Nc2c[nH]nc2C(=O)Nc2ccc(N3CCOCC3)cc2)c2ccsc2n1

SMILES: CN1CCN(Cc2ccc(NC(=O)c3n[nH]cc3Nc3ncnc4sccc34)cc2)CC1
IC50 [5]: 3.33 nM | inhibition at 0.123 µM [6]: > 80% | inhibition [7]: > 80% | IC50 (MV4-11): 16 nM | half-life [9]: 51 min | microsomal CLint [10]: 13.6 µL/min/mg | Drug uptake [11]: 29.7% | IC50 [12]: 4.5 nM | IC50 (CDK2/Cyclin A2): < 10 nM | IC50 [13]: < 10 nM | IC50 (CDK6/cyclin D1): < 10 nM | IC50 [14]: < 10 nM | IC50 [15]: 0.54 nM | IC50 [16]: 7.35 nM | IC50 [17]: 1.23 nM | IC50 [18]: 17.5 nM | IC50 [19]: 1.85 nM | IC50 [20]: 2.67 nM | IC50 [21]: 13.2 nM | Kd [22]: 7.01 nM | Kd [23]: 0.23 nM | Kd [24]: 1.3 nM | IC50 (MOLM-13): 39 nM | IC50 (HL-60): 334 nM | IC50 (K562): 235 nM | IC50 [3]: 0.6 nM

activity at 0.123 µM [1]: 71.2% | Activity [2]: 72.7% | IC50 (MV4-11): 27 nM | IC50 [3]: 0.95 nM
SMILES: Cc1nc(Nc2c[nH]nc2C(=O)Nc2ccc(N3CCN(C)CC3)cc2)c2ccsc2n1

activity at 0.123 µM [1]: 51.1% | Activity [2]: 72.1% | IC50 (MV4-11): 52 nM | Ratio IC50 (Homo sapiens [25]): 100 | Ratio IC50 (Homo sapiens [26]): 100 | IC50 [3]: 0.65 nM
SMILES: Cc1nc(Nc2c[nH]nc2C(=O)Nc2ccc(CN3CCN(C)CC3)cc2)c2ccsc2n1

activity at 0.123 µM [1]: 56.8% | Activity [2]: 63.6% | IC50 (MV4-11): 26 nM | IC50 [3]: 0.47 nM
SMILES: O=C(Nc1ccc(N2CCNCC2)cc1)c1n[nH]cc1Nc1nc(Cl)nc2sccc12

Activity [8]: 98.5% | activity at 0.123 µM [1]: 99.7% | Activity [2]: 96.2%
SMILES: Cc1[nH]nc(C(=O)Nc2ccc(CN3CCN(C)CC3)cc2)c1Nc1ncnc2sccc12

activity at 0.123 µM [1]: 100% | Activity [2]: 99.2% | IC50 (MV4-11): 98 nM | IC50 [3]: 20.5 nM
SMILES: CC(C)(C)c1nc(Nc2c[nH]nc2C(=O)Nc2ccc(N3CCNCC3)cc2)c2ccsc2n1

activity at 0.123 µM [1]: 97.4% | Activity [2]: 88% | IC50 (MV4-11): 59 nM | IC50 [3]: 2.53 nM
SMILES: O=C(Nc1ccc(N2CCNCC2)cc1)c1n[nH]cc1Nc1nc(C2CC2)nc2sccc12

activity at 0.123 µM [1]: 81.4% | Activity [2]: 95.4% | IC50 (MV4-11): 78 nM | IC50 [3]: 16.5 nM
SMILES: O=C(Nc1ccc(CN2CCOCC2)cc1)c1n[nH]cc1Nc1nc(C2CC2)nc2sccc12

IC50 [4]: 81.5 nM | IC50 [5]: 84.3 nM | inhibition at 0.123 µM [6]: > 80% | inhibition [7]: > 80% | IC50 (MV4-11): 19 nM | Ratio IC50 (Homo sapiens [25]): 131 | Ratio IC50 (Homo sapiens [26]): 131 | IC50 [3]: 0.62 nM
SMILES: Cc1nc(Nc2c[nH]nc2C(=O)Nc2ccc(N3CCNCC3)cc2)c2ccsc2n1

activity at 0.123 µM [1]: 101% | Activity [2]: 93.5% | IC50 (MV4-11): 57 nM | IC50 [3]: 11.3 nM
SMILES: CC(C)c1nc(Nc2c[nH]nc2C(=O)Nc2ccc(N3CCNCC3)cc2)c2ccsc2n1
